Usually Cmax stands for the highest concentration seen after dosing. What is called half-life is the time in which the quantity being followed falls by half. Usually Papp A→B stands for how fast a substance crosses the layer from the apical side. The efflux ratio is the permeability from basolateral to apical divided by that in the opposite direction, in the common usage. Broadly, the IC50 is the concentration that gives 50% inhibition.

One series relates to VPS34 activity. Nature of the series: PD: GFP-2xFYVE puncta in H1299 tumors (immunohistochemistry). The format is in vivo, mouse. Particulars: 9 or 29 mg·kg^−1 oral. The protocol: The study was performed by Truly Translational AB (Lund, Sweden) following Swedish legislations and approved by the ethical committee Malmö/Lunds djurförsöksetiska nämnd (M120‐15). Animals were housed 5/cage in polysulfone IVC cages at a constant temperature with 12 h light‐dark cycles and free access to food, tap water, and cage enrichment. Animals were allowed to acclimatize to the housing conditions for at least a week before the start of experiments. Female 8‐week‐old NOD.Cg‐Prkdc^ scid Il2rg^ tm1Sug /JicTac (CIEA‐NOG®) mice (supplied by Taconic Biosciences, Rensselaer, NY, USA; n = 42) were implanted subcutaneously with 1.75 × 10^6 H1299‐GFP2xFYVE cells in serum‐free RPMI in 50% Matrigel. When tumors reached 300–400 mm^3 mice were randomized and dosed with 9 or 29 mg·kg^−1 SB02024 or vehicle (PEG 200 (98%)/Polysorbate (2%)). At indicated time points after dosing, blood samples were taken by heart puncture and tumors were removed. Pharmacokinetic (PK) analysis (plasma and tumor samples) was performed by Q&Q Labs (Gothenburg, Sweden). Plasma was precipitated with acetonitrile, and after centrifugation, the soluble material was recovered. […] SB02024 levels were determined using UHPLC‐QQQ: Agilent 6460 (LC–MS/MS; Agilent Technologies, Santa Clara, CA, USA). […] Each TMA block was sectioned and analyzed at eight equally spaced levels. […]

For another series, the system named is Renca tumors. The experiment in a line: NanoString gene expression and network enrichment analysis of Renca tumors. The format is in vivo, mouse. From the text: Study protocols were approved by the Institutional Animal Care and Use Committee of CrownBio in China (AN‐1903‐05‐313) or the LIH's animal welfare committee in Luxembourg (agreement LECR‐2018‐12). Mice were handled according to European Union guidelines, adhering to the principles of replacement, reduction, and refinement (3Rs). Animals were housed in appropriate accommodations conducive to their well‐being, with provisions for housing, feeding, and environmental enrichment to meet their physical and behavioral needs. Highly skilled personnel were involved in carrying out procedures related to the animal experiments to ensure proper care and handling. Female 6 to 8‐week‐old BALB/c (supplied by Shanghai Lingchang Biotechnology Co., Shanghai, China; n = 14) or C57BL/6 mice (supplied by Janvier Labs, Le Genest‐Saint‐Isle, France; n = 40) were injected into the right flank with 1 × 10^6 Renca or 0.2 × 10^6 B16‐F10 cells, respectively, resuspended in 100 μL PBS (day 0). When tumors were palpable (day 9 for Renca, day 7 for B16‐F10 tumors), mice were randomly assigned into two groups for the Renca model with n = 6 (vehicle) and n = 8 (SB02024) or four groups for the B16‐F10 model with n = 10. Daily treatment with 20 mg·kg^−1 SB02024 or vehicle (0.5% methylcellulose in water supplemented with 1% Tween‐80) was administered by oral gavage (day 9–16 for Renca, day 7–16 for B16‐F10 model). For combination studies, ADU‐S100 (10 μg in 40–50 μL PBS) or vehicle (PBS) treatment was administered by intratumoral injection (days 9, 11, 13, and 15). Tumor growth was measured using a caliper every other day and estimated as follows: volume (cm^3) = (width)^2 × length × 0.5.
Renca tumor RNA was isolated using the Rneasy Plus kit (#74134; Qiagen, Venlo, the Netherlands), quantified using a NanoDrop spectrophotometer (Thermo Fisher), and 100 ng was used as input for the nCounter PanCancer IO 360 mouse panel (NanoString Technologies, Seattle, WA, USA). Data were analyzed by NanoString's data analysis service. Network enrichment analysis (NEA) was carried out by Evi‐networks, Sweden (see detailed description in Table S2).

Series [1] can be described thus: PK profiling in H1299-GFP-2xFYVE tumor-bearing mice (plasma and tumor). The format is in vivo, mouse. On the procedure: The study was performed by Truly Translational AB (Lund, Sweden) following Swedish legislations and approved by the ethical committee Malmö/Lunds djurförsöksetiska nämnd (M120‐15). Animals were housed 5/cage in polysulfone IVC cages at a constant temperature with 12 h light‐dark cycles and free access to food, tap water, and cage enrichment. Animals were allowed to acclimatize to the housing conditions for at least a week before the start of experiments. Female 8‐week‐old NOD.Cg‐Prkdc^ scid Il2rg^ tm1Sug /JicTac (CIEA‐NOG®) mice (supplied by Taconic Biosciences, Rensselaer, NY, USA; n = 42) were implanted subcutaneously with 1.75 × 10^6 H1299‐GFP2xFYVE cells in serum‐free RPMI in 50% Matrigel. When tumors reached 300–400 mm^3 mice were randomized and dosed with 9 or 29 mg·kg^−1 SB02024 or vehicle (PEG 200 (98%)/Polysorbate (2%)). At indicated time points after dosing, blood samples were taken by heart puncture and tumors were removed. Pharmacokinetic (PK) analysis (plasma and tumor samples) was performed by Q&Q Labs (Gothenburg, Sweden). Plasma was precipitated with acetonitrile, and after centrifugation, the soluble material was recovered. Tumor of 50–150 mg was homogenized mechanically in the presence of 5× acetonitrile relative to tissue weight using Precellys Tissue Homogenizer (Bertin Technologies, Montigny‐le‐Bretonneux, France). Samples were centrifuged and soluble material was kept for further analysis. SB02024 levels were determined using UHPLC‐QQQ: Agilent 6460 (LC–MS/MS; Agilent Technologies, Santa Clara, CA, USA). Pharmacodynamic (PD) analysis of GFP2xFYVE punctae was performed by Offspring Biosciences (Södertalje, Sweden). H1299‐GFP2xFYVE tumors were fixed by immersion in 4% formalin in PBS for 72 h at 4 °C, sampled randomly by six biopsies (diameter 1 mm), and reassembled into three separate tumor microarrays (TMAs). Each TMA block was sectioned and analyzed at eight equally spaced levels. The immunohistochemical staining was performed using the Ventana Discovery XT protocol. […]

Series [2] is described as follows: CaCo2 monolayer permeability assay. The format is in vitro ADME. The conditions noted are these: human, Caco-2. On the procedure: (§1) Experiments were conducted at Aragen Life Sciences Ltd. (Hyderabad, India) according to internal standard procedures.
(Passage across Caco-2 layers is used to estimate intestinal permeability.)

In series [3] the target is T1, VPS34 (Homo sapiens, UniProt Q8NEB9). The experiment in a line: biochemical. The protocol:
(§2) Compound dilution series was prepared in DMSO and further diluted to 4× final assay concentration in assay buffer (Buffer Q #PV5125, Thermo Fisher, supplemented with 2 mM DTT and 2 mM MnCl2). 2.5 μL of the diluted compounds were added to a 384‐well assay plate followed by 2.5 μL of 16.5 nM VPS34 enzyme (#PV5126; Thermo Fisher) and incubated for 15 min. Five microliters of substrate mix (20 μM ATP #PV3227 and 200 μM PI : PS substrate #PV5122; Thermo Fisher) in assay buffer was added, mixed, and incubated for 1 h. Five microliters of stop‐detection mix (Adapta kinase assay #PV5099; Thermo Fisher) were added, mixed, and incubated for 30 min and read with Artemis microplate reader. Percent remaining activity as compared to DMSO‐treated control samples was calculated and IC50 values were generated using […] PRISM (GraphPad Software, Inc., San Diego, CA, USA). The NanoBRET assay was performed using the manufacturer's protocol. Briefly, 293T cells were transfected with the Kinase‐NanoLuc® Fusion Vector DNA overnight. The next day cells were treated with compound and the NanoBRET tracer reagent and then read out measuring donor and acceptor emission wavelength (450 and 610 nm).

The nature of series [4]: Plasma protein binding, human. Particulars: unbound/free fraction, read-out: PPB (% unbound) human. The format is in vitro ADME. The protocol:
as §1

For series [5], the target named is T1, VPS34. Nature of the series: cell-based. The protocol:
as §2

[6] abbreviates: 20 mg·kg^−1, NanoString, vs vehicle.

T1 sequence (Q8NEB9 whole entry): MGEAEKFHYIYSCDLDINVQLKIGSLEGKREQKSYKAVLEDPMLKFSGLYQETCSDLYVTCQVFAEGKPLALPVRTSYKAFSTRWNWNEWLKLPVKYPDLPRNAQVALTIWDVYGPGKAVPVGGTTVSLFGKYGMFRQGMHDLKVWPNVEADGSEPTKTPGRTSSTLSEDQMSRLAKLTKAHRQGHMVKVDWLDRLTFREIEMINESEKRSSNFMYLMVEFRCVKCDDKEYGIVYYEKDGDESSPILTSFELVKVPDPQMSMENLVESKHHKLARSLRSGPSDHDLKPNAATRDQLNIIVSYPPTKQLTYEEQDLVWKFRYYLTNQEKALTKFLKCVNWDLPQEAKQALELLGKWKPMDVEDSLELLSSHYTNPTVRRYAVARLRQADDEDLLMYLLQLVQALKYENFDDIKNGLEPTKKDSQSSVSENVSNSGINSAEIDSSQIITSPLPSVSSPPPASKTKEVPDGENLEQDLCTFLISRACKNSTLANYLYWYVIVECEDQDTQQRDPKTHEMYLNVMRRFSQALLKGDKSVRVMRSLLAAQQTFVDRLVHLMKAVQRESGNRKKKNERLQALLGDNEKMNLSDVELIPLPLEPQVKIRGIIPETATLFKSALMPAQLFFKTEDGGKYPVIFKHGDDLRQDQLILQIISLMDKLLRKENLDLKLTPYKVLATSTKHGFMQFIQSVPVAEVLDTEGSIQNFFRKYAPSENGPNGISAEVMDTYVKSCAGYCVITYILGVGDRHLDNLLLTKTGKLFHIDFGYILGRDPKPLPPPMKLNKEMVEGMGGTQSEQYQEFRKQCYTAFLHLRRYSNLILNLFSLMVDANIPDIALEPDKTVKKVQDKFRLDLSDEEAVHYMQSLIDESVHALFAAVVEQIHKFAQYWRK

On to `C[C@@H]1COCCN1c1cc(N2CCCC[C@@H]2C(F)(F)F)[nH]c(=O)c1` [SB02024], for which the “duration of inhibition of GFP-2xFYVE puncta formation” value in the series with VPS34 activity is on record as “about 8 h”. For the same molecule, the “GFP-2xFYVE puncta (autophagosome and endosome) formation in H1299 tumors” value in the series on VPS34 activity (after 2 h) is listed as “inhibited”. In the series with Renca tumors (setting [6]), the “Ptprc gene expression (CD45+ cells) in Renca tumors” value is on record as “significantly increased”; the “gene signatures for cytotoxic cells, T cells, total and CD56dim NK cells, macrophages, neutrophils” value is given as “significant increase”. The “Reactome gene signature for STING-mediated signaling, enrichment” value in the series with Renca tumors (NEA, r-mmu-3134975 as printed, treated tumors vs vehicle controls) was “enrichment”. Besides, the “STAT1 and IFN gene signature for ICB sensitivity (Zemek et al.), enrichment” value with Renca tumors (NEA, treated tumors vs vehicle controls) is “significantly enriched”. In series [1] (female, NOD.Cg-Prkdc scid Il2rg tm1Sug/JicTac (CIEA-NOG), mouse, oral 29 mg·kg^−1, plasma and tumor, H1299-GFP-2xFYVE tumor-bearing CIEA NOG mice), this molecule registered a Cmax of approximately 10 µM. The half-life in series [1] (female, NOD.Cg-Prkdc scid Il2rg tm1Sug/JicTac (CIEA-NOG), mouse, oral 29 mg·kg^−1, tumor and plasma concentrations) was 2.5 h. The “time of Cmax” value in series [1] (oral 29 mg·kg^−1, plasma and tumor) turned out to be 2 h. In series [2], the Papp A→B amounted to 51 ×10⁻⁶ cm/s and the efflux ratio stood at 0.9. Further, the IC50 at VPS34 [3] turned out to be 5 nM. The fraction unbound in series [4] was 0.44. Besides, at VPS34 [5], the IC50 was determined as 5.7 nM.

For the origin of these results see publication PMC11306511, “Combining VPS34 inhibitors with STING agonists enhances type I interferon signaling and anti‐tumor efficacy” (Molecular Oncology, 2024).
